Results as given in patent publication US20260068882A1, “ARTHROPOD CONTROLLING COMPOSITION” (Firmenich SA, priority 2019, published 2026).
Like-named read-outs stand apart in the source and are kept apart here.

Legend:
[1] = test system: Ixodes ricinus; experiment: In vitro Warm Plate Assay for ticks; assay type: in vivo; conditions: for pest or weed control at 0.0016 % / pest or weed control at 0.04 % / pest or weed control at 1 % / pest or weed control at 0.2 % / pest or weed control at 0.00032 % / pest or weed control at 0.008 %: Ixodes ricinus, read-out: percentage of ticks affected on the Warm Plate; for pest or weed control at 0.2 %: 0.2% (Table 10); for pest or weed control at 0.00032 %: 0.00032% (Table 10); for pest or weed control at 0.008 %: 0.008% (Table 10)
Description: Repellent efficacy of the different compounds was assessed against the sheep tick, Ixodes ricinus. I. ricinus is one of the recommended model organisms mentioned by the Guidance on the European Biological Products Regulation [Vol II, Efficacy-Assessment & Evaluation (Parts B+C), v. 3.0, April 2018]. Observations of repellent efficacy were made on last stage nymphs.
The repellent efficacy was assessed using the protocol of the in-vitro Warm Plate Assay as defined in Kröber T, Bourquin M, Guerin P M. A standardized in vivo and in vitro test method for evaluating tick repellents. Pesticide Biochemistry and Physiology. 2013; 107 (2): 160-168.].
The mean±SD number of ticks Ixodes ricinus walking down (affected), falling (affected) or walking-up (non affected) from the warm plate treated with ethanol, N,N-diethyl-3-methylbenzamide, (2,5-dimethyl-2,3-dihydro-1H-inden-2yl)methanol (Ingredient 2) or (2,4,6-trimethyl-2,3-dihydro-1H-inden-2-yl)methanol (Ingredient 1) diluted in ethanol at 0.4 mg/ml and 10 mg/mL was assessed on n groups of 12 ticks (n=2-5).
In this in-vitro assay, the percentage of ticks Ixodes ricinus affected by the stimulus loaded on the warm plate was measured in order to assess the repellency effect. Twelve ticks were assessed per concentrations that goes from 0.0016% up to 1% in ethanol.
Using the same in-vitro setup, the effect on ticks behavior (n≥12) of different stimuli diluted in ethanol at 20% (w/w) was assessed overtime.

[2] = test system: Aedes aegypti; experiment: In vitro Warm Body assay, mosquitoes landing on treated warm body; assay type: in vivo; conditions: for repellent effect with increasing amount of stimuli (in words): 0.0016%, 0.04% and 1% in ethanol (FIG. 10)
Description: (§1) The arthropod controlling effect according to the present invention is determined on mosquitoes using an adapted Warm Body assay as defined in Kröber T, Kessler S, Frei J, Bourquin M, Guerin P M. An in vitro assay for testing mosquito controlling compounds employing a warm body and carbon dioxide as a behavioral activator. J Am Mosq Control Assoc. 2010; 26:381-386.
(§2) The controlling effect according to the present invention is determined by testing the Warm Body assay against the yellow fever mosquito, Aedes aegypti Rockefeller strain. […] Observations of controlling efficacy were made on host-seeking females of uniform age, 5 to 10 days old selected as mentioned in the publication mentioned hereinabove. Tested hungry females had access to 10% sugar solution but were not blood-fed.
(§3) The published protocol has been adapted in not manually counting the landing mosquitoes but automatically using an automatic counting software, the switch from Anopheles gambiae to A. aegypti led to a decrease of mosquitoes' number placed in the tested cage due to the size difference (i.e. 30 mosquitoes instead of 50) and to an increase of lighting as A. aegypti is a diurnal mosquitoes (i.e. 150 lux instead of 4 lux).
as §2, with “A.” for “Aedes”
as §1, with “The” for “The arthropod”, “was assessed” for “is determined on mosquitoes”
as §3, with “Aedes” for “A.”
In this in-vitro assay the number of A. aegypti landing on a warm body treated with the tested stimuli was measured in order to assess the repellency effect. Three replicates were carried on the three different doses: 0.0016%, 0.04% and 1% in ethanol, using 25 A. aegypti 10-12 days old females per cage.
In this in-vitro assay, the number of Aedes aegypti landing on a warm body treated with the tested stimuli was measured in order to assess the repellency effect. Three replicates were carried on the three different doses: 0.0016%, 0.04% and 1% in ethanol.
In this in-vitro assay, the number of Aedes aegypti landing on a warm body treated with the tested stimuli was measured in order to assess the repellency effect. One replicate was carried at different doses ranging from 0.0016% up to 1% in ethanol.

In the case of `CC(C)(C)c1ccc2c(c1)CC1(COC1)C2` [5-(tert-butyl)-1,3-dihydrospiro[indene-2,3′-oxetane]], the pest or weed control at 0.0016 % ([1]; 0.0016% (Table 11)) was 0%, the pest or weed control at 0.04 % ([1]; 0.04% (Table 11)) was 17% and the pest or weed control at 1 % ([1]; 1% (Table 11)) was 86%.

With `CC1(C)OC[C@@]2(C)Cc3ccccc3[C@H]2O1` (racemic) [(4aRS,9bRS)-2,2,4a-trimethyl-4,4a,5,9b-tetrahydroindeno[1,2-d][1,3]dioxine] the “number of mosquitoes landed on the Warm Body” value (“number of mosquitoes landed” for short) ([2]; 0.0016% in ethanol (Table 6)) was 42, the “number of mosquitoes landed” value ([2]; 0.04% in ethanol (Table 6)) was 47 and the “number of mosquitoes landed” value ([2]; 1% in ethanol (Table 6)) was 2.

With `Cc1ccc2c(c1)C(O)C(C)(CO)C2` (racemic) [2-(hydroxymethyl)-2,6-dimethyl-2,3-dihydro-1H-inden-1-ol] the “repellent effect with increasing amount of stimuli (in words)” value (“repellent effect with increasing amount” below) [2] was “low decrease of landing”.

In the case of `Cc1ccc2c(c1)[C@H]1OCOC[C@@]1(C)C2` (racemic) [(4aRS,9bRS)-4a,8-dimethyl-4,4a,5,9b-tetrahydroindeno[1,2-d][1,3]dioxin], the “number of mosquitoes landed” value ([2]; 0.0016% in ethanol (Table 6)) was 34, the “number of mosquitoes landed” value ([2]; 0.04% in ethanol (Table 6)) was 20 and the “number of mosquitoes landed” value ([2]; 1% in ethanol (Table 6)) was 5.

For `CCc1ccc2c(c1)CC(C)(CO)C2` (centres unmarked) [5-ethyl-2-methyl-2-indanmethanol], the pest or weed control at 0.04 % ([2]; Aedes aegypti, read-out: decrease of landings) was about 70%.

For “(2RS,4aSR,9bRS)-2-ethyl-4,4a,5,9b-tetrahydroindeno[1,2-d][1,3]dioxine + (2RS,4aRS,9bSR)-2-ethyl-4,4a,5,9b-tetrahydroindeno[1,2-d][1,3]dioxine”, the “number of mosquitoes landed” value ([2]; 0.0016% in ethanol (Table 6)) was 43, the “number of mosquitoes landed” value ([2]; 0.04% in ethanol (Table 6)) was 6 and the “number of mosquitoes landed” value ([2]; 1% in ethanol (Table 6)) was 5.

For “(2RS,4aRS,9bSR)-2-methyl-4,4a,5,9b-tetrahydroindeno[1,2-d][1,3]dioxin + (2RS,4aSR,9bRS)-2-methyl-4,4a,5,9b-tetrahydroindeno[1,2-d][1,3]dioxin”, the “number of mosquitoes landed” value ([2]; 0.0016% in ethanol (Table 6)) was 28, the “number of mosquitoes landed” value ([2]; 0.04% in ethanol (Table 6)) was 2 and the “number of mosquitoes landed” value ([2]; 1% in ethanol (Table 6)) was 2.

With `CC1OC(C)C2Cc3ccccc3C2O1` (stereo not drawn) [(+)-2,4-dimethyl-4,4a,5,9b-tetrahydroindeno[1,2-d][1,3]dioxine + (−)-2,4-dimethyl-4,4a,5,9b-tetrahydroindeno[1,2-d][1,3]dioxine] the “number of mosquitoes landed” value ([2]; 0.0016% in ethanol (Table 6)) was 58, the “number of mosquitoes landed” value ([2]; 0.04% in ethanol (Table 6)) was 37 and the “number of mosquitoes landed” value ([2]; 1% in ethanol (Table 6)) was 3.

`CC1OC(C)C2Cc3ccccc3C2O1` (centres unmarked) [ingredient #5, 2,4-dimethyl-4,4a,5,9b-tetrahydroindeno[1,2-d][1,3]dioxine] was tested, and the “percentage of ticks being affected” value ([1]; 0.00032% (Table 9)) was 0%, the “percentage of ticks being affected” value ([1]; 0.00071% (Table 9)) was 0% and the “percentage of ticks being affected” value ([1]; 0.0016% (Table 9)) was 17%. The “percentage of ticks being affected” value ([1]; 0.00357% (Table 9)) was 0%, the “percentage of ticks being affected” value ([1]; 0.0053% (Table 9)) was 0% and the “percentage of ticks being affected” value ([1]; 0.008% (Table 9)) was 0%. For the same compound, the “percentage of ticks being affected” value ([1]; 0.0119% (Table 9)) was 0%, the “percentage of ticks being affected” value ([1]; 0.0178% (Table 9)) was 8% and the “percentage of ticks being affected” value ([1]; 0.0267% (Table 9)) was 0%. For the same compound, the “percentage of ticks being affected” value ([1]; 0.04% (Table 9)) was 15%, the “percentage of ticks being affected” value ([1]; 0.0598% (Table 9)) was 0% and the “percentage of ticks being affected” value ([1]; 0.089% (Table 9)) was 7%. The “percentage of ticks being affected” value ([1]; 0.2% (Table 9)) was 38%, the “percentage of ticks being affected” value ([1]; 0.447% (Table 9)) was 71% and the “percentage of ticks being affected” value ([1]; 1% (Table 9)) was 62%.

“(1RS,2RS)-2-(hydroxymethyl)-2,6-dimethyl-2,3-dihydro-1H-inden-1-ol+(1RS,2SR)-2-(hydroxymethyl)-2,6-dimethyl-2,3-dihydro-1H-inden-1-ol” was tested, and the “repellent effect with increasing amount” value [2] was “significant lower repellent effect than DEET or IR3535”.

`Cc1ccc2c(c1)C1OC(=O)OCC1(C)C2` (centres unmarked) [4a,8-dimethyl-indano[1,2-d]-1,3-dioxan-2-one] showed a decrease of landings ([2]; 0.04% in ethanol (FIG. 8)) of about 70%.

With “(2RS,4aRS,9bSR)-2-ethyl-8-methyl-4,4a,5,9b-tetrahydroindeno[1,2-d][1,3]dioxin + (2RS,4aSR,9bRS)-2-ethyl-8-methyl-4,4a,5,9b-tetrahydroindeno[1,2-d][1,3]dioxin” the “number of mosquitoes landed” value ([2]; 0.0016% in ethanol (Table 6)) was 45, the “number of mosquitoes landed” value ([2]; 0.04% in ethanol (Table 6)) was 24 and the “number of mosquitoes landed” value ([2]; 1% in ethanol (Table 6)) was 10.

`CC(=O)OCC1(C)Cc2ccccc2C1` [(2-methyl-2,3-dihydro-1H-inden-2-yl)methyl acetate] gave a pest or weed control at 0.04 % ([1]; 0.04% (Table 10)) of 25%, a pest or weed control at 0.2 % [1] of 58% and a pest or weed control at 1 % ([1]; 1% (Table 10)) of 100%.

In the case of “(1RS,2RS)-2-((2-methoxypropan-2-yloxy)methyl)-2,6-dimethyl-2,3-dihydro-1H-inden-1-ol+(1RS,2SR)-2-((2-methoxypropan-2-yloxy)methyl)-2,6-dimethyl-2,3-dihydro-1H-inden-1-ol”, the “repellent effect with increasing amount” value [2] was “significant lower repellent effect than DEET or IR3535”.

For `COC(=O)C1(C)Cc2ccc(C)cc2C1` (racemic) [(+−)-methyl 2,5-dimethyl-2,3-dihydro-1H-indene-2-carboxylate], the pest or weed control at 0.0016 % ([1]; 0.0016% (Table 11)) was 7%, the pest or weed control at 0.04 % ([1]; 0.04% (Table 11)) was 18% and the pest or weed control at 1 % ([1]; 1% (Table 11)) was 100%.

`C[C@@H]1O[C@H](C)[C@@H]2Cc3ccccc3[C@@H]2O1` (racemic) [(2RS,4RS,4ASR,9BRS)-2,4-dimethyl-4,4a,5,9b-tetrahydroindeno[1,2-d][1,3]dioxine] was tested, and the “number of mosquitoes landed” value ([2]; 0.0016% in ethanol (Table 6)) was 11, the “number of mosquitoes landed” value ([2]; 0.04% in ethanol (Table 6)) was 6 and the “number of mosquitoes landed” value ([2]; 1% in ethanol (Table 6)) was 2.

For `Cc1ccc2c(c1)C[C@]1(C)COC(C)(C)O[C@H]21` (racemic) [(4aRS,9bRS)-2,2,4a,7-tetramethyl-4,4a,5,9b-tetrahydroindeno[1,2-d][1,3]dioxine], the “number of mosquitoes landed” value ([2]; 0.0016% in ethanol (Table 6)) was 51, the “number of mosquitoes landed” value ([2]; 0.04% in ethanol (Table 6)) was 44 and the “number of mosquitoes landed” value ([2]; 1% in ethanol (Table 6)) was 8.

For `COCOCC1(C)Cc2ccc(C)cc2C1` (centres unmarked) [2-((methoxymethoxy)methyl)-2,5-dimethyl-2,3-dihydro-1H-indene], the pest or weed control at 0.00032 % [1] was 0%, the pest or weed control at 0.0016 % ([1]; 0.0016% (Table 10)) was 17% and the pest or weed control at 0.008 % [1] was 0%. The pest or weed control at 0.04 % ([1]; 0.04% (Table 10)) was 33%, the pest or weed control at 0.2 % [1] was 54% and the pest or weed control at 1 % ([1]; 1% (Table 10)) was 100%.

`Cc1cc2c(cc1C)CC(C)(CO)C2` [(2,5,6-trimethyl-2,3-dihydro-1H-inden-2-yl)methanol] showed a pest or weed control at 0.0016 % ([1]; 0.0016% (Table 11)) of 17%, a pest or weed control at 0.04 % ([1]; 0.04% (Table 11)) of 38% and a pest or weed control at 1 % ([1]; 1% (Table 11)) of 77%.

`COC(C)OCC1(C)Cc2ccc(C)cc2C1` (centres unmarked) [2-[(1-methoxyethoxy)methyl]-2,5-dimethylindane] was tested, and the pest or weed control at 0.00032 % [1] was 8%, the pest or weed control at 0.0016 % ([1]; 0.0016% (Table 10)) was 0% and the pest or weed control at 0.008 % [1] was 21%. For the same compound, the pest or weed control at 0.04 % ([1]; 0.04% (Table 10)) was 33%, the pest or weed control at 0.2 % [1] was 64% and the pest or weed control at 1 % ([1]; 1% (Table 10)) was 100%.

For “(2,5-dimethyl-2-indanyl)methyl formate)methanol”, the “percentage of ticks affected on the Warm Plate” value (shortened to “percentage of ticks affected”) ([1]; 0.0016% (Table 11)) was 0%, the “percentage of ticks affected” value ([1]; 0.04% (Table 11)) was 15% and the “percentage of ticks affected” value ([1]; 1% (Table 11)) was 100%.
